Measurements from patent publication US20220002728A1, “METHOD FOR PREVENTING OXIDATION OF POLYPHENOL BY MEANS OF APTAMER, MATERIAL THEREOF, AND USE THEREOF” (Nexmos Co., LTD, priority 2018, published 2022).

Experiment: WST-1 assay of EGCG oxidation delay by aptamer
Assay type: physicochemical
Conditions: for comparison of EGCG oxidation delay effect of aptamer K4 and aptamer K5: 20 μM aptamer, 500 μM EGCG, 30 minutes, WST-1 assay (FIG. 5); for concentration dependence of EGCG oxidation delay (reduction of WST-1 delayed): 5, 10 and 20 uM aptamer with EGCG, WST-1 assay (FIGS. 3 and 4); for oxidation of EGCG delayed: at 20 uM aptamer, 500 mM EGCG (so in the source), room temperature 30 minutes, WST-1, 440 nm absorbance measured for 16 hours (FIG. 3, FIG. 4)
Procedure: FIG. 1 is a graph showing the effect of delaying EGCG oxidation in aptamer K1 (SEQ ID NO: 1) to K9 (SEQ ID NO: 9) of the present invention. Nine types of aptamer K from aptamer K1 to aptamer K9 that bind to EGCG were prepared in the same manner as described above. After 20 μM aptamer K1 to K9 and 500 μM EGCG were reacted for 30 minutes, respectively, WST-1 assay was performed. The degree of delaying EGCG oxidation of each aptamer K was compared,
The aptamer (aptamers of SEQ ID NOs: 1 to 9) of the present invention reacting specifically with the EGCG obtained through the SELEX was dissolved in a folding buffer (1 mM MgCl2 in PBS) and then dissolved at 95° C.
After reacting 500 uM EGCG and one of the prepared 20 μM aptamers K1 to K9 and for 30 minutes, WST-1 assay was performed. The degree of EGCG oxidation delay of each aptamer K was compared.
500 mM EGCG and 5, 10, and 20 uM of the prepared aptamer K4 were reacted at room temperature for 30 minutes, respectively, and then WST-1 assay was performed. Prepared sample and WST-1([…]) was reacted to measure the formazan produced and with the plate reader, 440 nm absorbance was measured for 16 hours.
The aptamer K5 (aptamer of SEQ ID NO: 5) that specifically reacts with EGCG obtained through the SELEX was prepared in the same manner as described above and was tested for the effect of delaying EGCG oxidation.
Aptamers K4 and K5 binding to the EGCG were prepared in the same manner as described above. 20 μM aptamer K4, or aptamer K5, and 500 μM EGCG were reacted for 30 minutes, respectively, followed by WST-1 assay. It was confirmed that the EGCG oxidation delay effect of 20 μM aptamer K4 and aptamer K5 was similar (FIG. 5).

Substance: aptamer K4: DNA aptamer binding EGCG, 30 mer: CGACGACAGGAGGTGCGGCCCCGGCAGACC (DNA, backbone and methylation of C not given here)
- comparison of EGCG oxidation delay effect of aptamer K4 and aptamer K5: similar
- concentration dependence of EGCG oxidation delay (reduction of WST-1 delayed): delayed (about 33% at 20 uM) depending on the concentration
- oxidation of EGCG delayed: about 33%

Substance: aptamer K5: DNA aptamer binding EGCG, 29 mer: ACGCATGCCGGGCGCGCTCCCTGTCGTCC (DNA, backbone and methylation of C not given here)
- comparison of EGCG oxidation delay effect of aptamer K4 and aptamer K5: similar
- concentration dependence of EGCG oxidation delay (reduction of WST-1 delayed): delayed (about 33% at 20 uM) depending on the concentration
- concentration dependence of EGCG oxidation delay (reduction of WST-1 delayed) (listed as 1(5)): delayed depending on the concentration
- oxidation of EGCG delayed: about 33%
